Results reported in publication PMC11618052, “Design, synthesis, and antiproliferative activity of new 1,2,3-triazole/quinazoline-4-one hybrids as dual EGFR/BRAF^V600E inhibitors” (RSC Advances, 2024).

Key:
[1] = Cell viability MTT assay on MCF-10A normal cells; assay type: cell-based; conditions: human, MCF-10A normal mammary gland epithelial cells, MCF-10A cells, four days of incubation
Protocol: The viability of new compounds 8a–t was evaluated using the MCF-10A normal human mammary gland epithelial cell line. The cell viability of compounds 8a–t was examined using the MTT assay[36] after four days of incubation with MCF-10A cells. For more details, see Appendix A (ESI file). ^† […]
We evaluated the viability of new compounds 8a–t using the MCF-10A normal human mammary gland epithelial cell line. The cell viability of compounds 8a–t was examined using the MTT assay[36] after four days of incubation with MCF-10A cells.
4.2. Biological evaluation
4.2.1. Cytotoxic activity using MTT Assay and evaluation of IC 50
MTT assay was carried out to study the effect of compounds on mammary epithelial cells (MCF-10A). The medium in which cells were propagated contained Dulbecco's modified Eagle's medium (DMEM)/ Ham's F-12 medium (1:1) supplemented with epidermal growth factor (20 ng/mL), hydrocortisone (500 ng/mL), insulin (10 μg/mL), 2 mM glutamine and 10% foetal calf serum.
After every 2-3 days, the cells were passaged using trypsin ethylenediamine tetra acetic acid (EDTA). The cells were seeded at a density of 10^4 cells mL-1 in flat-bottomed culture plates containing 96 wells each. After 24 h, medium was removed from the plates and the compounds in (in 0.1% DMSO) were added (in 200 μL medium to yield a final concentration of 0.1% v/v) to the wells of plates. A single compound was designated with four wells followed by incubation of plates for 96h at 37°C. After incubation, medium was removed completely from the plates followed by addition of MTT (0.4 mg/mL in medium) to each well and subsequent incubation of plates for 3h. MTT (along with the medium) was removed and DMSO (150μL) was added to each well of the culture plates, followed by vortexing and subsequent measurement of absorbance (at 540 nm) using microplate reader. The data are shown as percentage inhibition of proliferation in comparison with controls containing 0.1% DMSO. […]

breast cancer (MCF-7) = test: Antiproliferative MTT assay, MCF-7; assay type: cell-based; conditions: Homo sapiens, MCF7, MCF-7 breast cancer cells, read-out: Antiproliferative activity IC50 ± SEM, MCF-7
Protocol: (§1) The median inhibitory concentration (IC50) and GI50 (mean IC50) for the four cancer cell lines were calculated. Appendix A ^† contains more details. […]

EGFR = target: T1, EGFR (Homo sapiens, UniProt P00533); test: EGFR-TK inhibitory assay; assay type: biochemical; conditions: read-out: EGFR inhibition IC50 ± SEM
T1 construct: 645–1186; His6 (N); made in house; host or cells: Sf-9 insect cells (baculovirus; pBlueBacHis2B / pFASTBacHTc)
T1 sequence (P00533 669-1210): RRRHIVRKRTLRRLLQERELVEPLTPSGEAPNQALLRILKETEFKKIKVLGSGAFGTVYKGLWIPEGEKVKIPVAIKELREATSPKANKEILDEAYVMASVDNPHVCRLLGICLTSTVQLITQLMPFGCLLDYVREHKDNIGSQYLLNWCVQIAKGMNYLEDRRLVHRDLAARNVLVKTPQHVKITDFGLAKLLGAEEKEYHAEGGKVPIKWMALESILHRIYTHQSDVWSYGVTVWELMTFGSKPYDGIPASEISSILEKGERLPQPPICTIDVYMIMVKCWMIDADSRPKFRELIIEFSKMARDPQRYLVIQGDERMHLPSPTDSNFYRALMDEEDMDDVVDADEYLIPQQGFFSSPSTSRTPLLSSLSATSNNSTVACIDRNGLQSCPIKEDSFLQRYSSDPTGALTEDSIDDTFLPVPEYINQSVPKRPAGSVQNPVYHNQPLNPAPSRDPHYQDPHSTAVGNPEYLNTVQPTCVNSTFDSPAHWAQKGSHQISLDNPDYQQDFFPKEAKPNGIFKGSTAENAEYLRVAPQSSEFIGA
Protocol: Sf-9 cells were infected for 72h for protein expression. […]
centrifugation for 20 min.
Histidine-linked proteins were first eluted with 250 and then […]
using wash buffer. Europium-tagged antiphosphotyrosine antibody (75 µL, 400 ng) was added to each well followed by incubation of 1h and then washing of the plates using buffer. The enhancement solution was added to each well and the signal was recorded at excitation and […]
The autophosphorylation percentage inhibition by compounds was calculated using the following equation: […]

colon cancer (HT-29) = test: Antiproliferative MTT assay, HT-29; assay type: cell-based; conditions: Homo sapiens, HT-29 colon cancer cells, read-out: Antiproliferative activity IC50 ± SEM, HT-29
Protocol: as §1

A-549 cells [2] = test: Cell cycle analysis by flow cytometry in A-549; assay type: cell-based, human; conditions: A-549, IC50 concentration of 8g, 24 hours
Excerpt: (§2) The impact of compound 8g on cell cycle progression and apoptosis induction was examined in A-549 cells. […] We stained the cell line with PI/annexin V and performed flow cytometry using a BD FACS Caliber.[41] Refer to Appendix A ^† for more details.
The effects of 8g on cell cycle progression and apoptosis induction in A-549 cells were examined. […] We stained the cell line with PI/annexin V and performed flow cytometry using a BD FACS Caliber.[41] […] This means a cell cycle arrest at the G1 transition.

A-549 cells [3] = test: Apoptosis induction assay, annexin V/PI, in A-549; assay type: cell-based, human; conditions: A-549, annexin V/PI, 24 hours
Protocol: as §2
A-549 cells was stained with annexin V/PI, cultured for 24 hours, and analyzed them to examine 8g's capacity to cause apoptosis.
Avoid direct exposure to intense light. The point, at which the substrate reaction is stopped, is often determined by the ELISA reader. Many ELISA readers record absorbance only up to 2.0
O.D. Therefore, the color development within individual microwells must be watched by the person running the assay and the substrate reaction stopped before positive wells are no longer properly detectable. […] Results must be read immediately after the Stop Solution is added or within one hour if the microwell strips are stored at 2 - 8°C in the dark. Read absorbance of each microwell on a spectrophotometer using 450 nm as the primary wavelength. […]
Apoptosis was determined by flow cytometry based on the Annexin-V-fluoresce in isothiocyanate (FITC) and propidium iodide (PI) staining kit (BD Pharmingen, San Diego, USA).
(FITC) and propidium iodide (PI) staining kit (BD Pharmingen, San Diego, USA). […] Subsequently, cells were analyzed by flow cytometry (Becton Dickinson, Franklin Lakes, and USA).

| SMILES | viability at 4 days, 50 µM [1] [%] | IC50 (breast cancer (MCF-7)) [nM] | IC50 (EGFR) [nM] | IC50 (colon cancer (HT-29)) [nM] | Cells in G0/G1 phase (%DIP G1) (A-549 cells [2]) [%] | Necrosis percentage (A-549 cells [3]) [%] |
| --- | --- | --- | --- | --- | --- | --- |
| Cc1ccc(-n2cc(CSc3nc4ccccc4c(=O)n3-c3ccc(C)cc3)nn2)cc1 [Compound 8h, 2-(((1-(p-Tolyl)-1H-1,2,3-triazol-4-yl)methyl)thio)-3-(p-tolyl)quinazolin-4(3H)-one] | 92 | 22 ± 1 | 74 ± 5 | 27 ± 1 |  |  |
| COc1ccc(-n2cc(CSc3nc4ccccc4c(=O)n3-c3ccc(C)cc3)nn2)cc1 [Compound 8g, 2-(((1-(4-Methoxyphenyl)-1H-1,2,3-triazol-4-yl)methyl)thio)-3-(p-tolyl)quinazolin-4(3H)-one] | 88 | 20 ± 1 | 68 ± 4 | 24 ± 1 | 86 | 4.39 |
